Measurements published in ChEMBL document CHEMBL5724806, “Unraveling interindividual differences and functional consequences of gut microbial metabolism of immunosuppressants” (2024).

How the values were obtained:
Format in all cases: ADME
[1] = (§1) The drug is tested on Lactobacillus reuteri strain: DSM20016 for biotransformation under microaerobic condition. The drug concentrations were measured over 6 timepoints collected between 0 and 12 hours of incubation by liquid-chromatography-coupled mass spectrometry (LC–MS); set-up: dose 5 uM, timepoint 0, 1.5, 3, 6, 9, 12 hours; conditions: limosilactobacillus reuteri, 5 µM
[2] = The drug is tested on Escherichia coli strain: DSM27469 for biotransformation under microaerobic condition. The drug concentrations were measured over 6 timepoints collected between 0 and 12 hours of incubation by liquid-chromatography-coupled mass spectrometry (LC–MS); set-up: dose 5 uM, timepoint 0, 1.5, 3, 6, 9, 12 hours; conditions: 5 µM
[3] = (§2) The drug is tested on Actinomyces naeslundi strain: DSM43013 for biotransformation under anaerobic condition. The drug concentrations were measured over 6 timepoints collected between 0 and 12 hours of incubation by liquid-chromatography-coupled mass spectrometry (LC–MS); set-up: dose 5 uM, timepoint 0, 1.5, 3, 6, 9, 12 hours; conditions: actinomyces naeslundii, 5 µM
[4] = as §2, with “the gut metagenome community of T-02 with ENA study accession number: PRJEB31790” for “Actinomyces naeslundi strain: DSM43013”, “7” for “6”; set-up: dose 5 uM, timepoint 0, 0.75, 1.5, 3, 6, 9, 12 hours; conditions: 5 µM
[5] = as §2, with “the gut metagenome community of A-01 with ENA study accession number: PRJEB31790” for “Actinomyces naeslundi strain: DSM43013”, “7” for “6”; set-up: dose 5 uM, timepoint 0, 0.75, 1.5, 3, 6, 9, 12 hours; conditions: 5 µM
[6] = as §2, with “the gut metagenome community of T-03 with ENA study accession number: PRJEB31790” for “Actinomyces naeslundi strain: DSM43013”, “7” for “6”; set-up: dose 5 uM, timepoint 0, 0.75, 1.5, 3, 6, 9, 12 hours; conditions: 5 µM
[7] = The drug is tested on Streptococcus mitis strain: DSM12643 for biotransformation under anaerobic condition. The drug concentrations were measured over 6 timepoints collected between 0 and 12 hours of incubation by liquid-chromatography-coupled mass spectrometry (LC–MS); set-up: dose 5 uM, timepoint 0, 1.5, 3, 6, 9, 12 hours; conditions: 5 µM
[8] = as §1, with “the gut metagenome community of T-01 with ENA study accession number: PRJEB31790” for “Lactobacillus reuteri strain: DSM20016”, “7” for “6”; set-up: dose 5 uM, timepoint 0, 0.75, 1.5, 3, 6, 9, 12 hours; conditions: 5 µM
[9] = The drug is tested on Streptococcus anginosus strain: DSM20563 for biotransformation under microaerobic condition. The drug concentrations were measured over 6 timepoints collected between 0 and 12 hours of incubation by liquid-chromatography-coupled mass spectrometry (LC–MS); set-up: dose 5 uM, timepoint 0, 1.5, 3, 6, 9, 12 hours; conditions: 5 µM
[10] = The drug is tested on Clostridium bolteae strain: DSM15670 for biotransformation under anaerobic condition. The drug concentrations were measured over 6 timepoints collected between 0 and 12 hours of incubation by liquid-chromatography-coupled mass spectrometry (LC–MS); set-up: dose 5 uM, timepoint 0, 1.5, 3, 6, 9, 12 hours; conditions: enterocloster bolteae, 5 µM
[11] = The drug is tested on Lactobacillus ruminis strain: ATCC25644 for biotransformation under microaerobic condition. The drug concentrations were measured over 6 timepoints collected between 0 and 12 hours of incubation by liquid-chromatography-coupled mass spectrometry (LC–MS); set-up: dose 5 uM, timepoint 0, 1.5, 3, 6, 9, 12 hours; conditions: ligilactobacillus ruminis, 5 µM

SMILES	Bacterial Biotransformation [1]	Bacterial Biotransformation [2]	Bacterial Biotransformation [3]	Bacterial Biotransformation [4]	Bacterial Biotransformation [5]	Bacterial Biotransformation [6]	Bacterial Biotransformation [7]	Bacterial Biotransformation [8]	Bacterial Biotransformation [9]	Bacterial Biotransformation [10]	Bacterial Biotransformation [11]
CNC(=C[N+](=O)[O-])NCCSCc1ccc(CN(C)C)o1 [RANITIDINE]	Compound NOT metabolized	Compound NOT metabolized	Compound NOT metabolized	Compound NOT metabolized	Compound NOT metabolized	Compound NOT metabolized	Compound NOT metabolized	Compound NOT metabolized	Compound NOT metabolized	Compound NOT metabolized	Compound NOT metabolized
CC(C)NCC(O)COc1ccc(CC(N)=O)cc1 (stereo unspecified) [ATENOLOL]	Compound NOT metabolized	Compound NOT metabolized	Compound NOT metabolized	Compound NOT metabolized	Compound NOT metabolized	Compound NOT metabolized	Compound NOT metabolized	Compound NOT metabolized	Compound NOT metabolized	Compound NOT metabolized	Compound NOT metabolized
COc1ccc([C@@H]2Sc3ccccc3N(CCN(C)C)C(=O)[C@@H]2OC(C)=O)cc1 [DILTIAZEM]	Compound NOT metabolized	Compound metabolized	Compound NOT metabolized	Compound NOT metabolized	Compound metabolized	Compound NOT metabolized	Compound NOT metabolized	Compound metabolized	Compound NOT metabolized	Compound NOT metabolized	Compound NOT metabolized
C[C@]12CCC(=O)C=C1CC[C@@H]1[C@@H]2[C@@H](O)C[C@@]2(C)[C@H]1CC[C@]2(O)C(=O)CO [HYDROCORTISONE]	Compound NOT metabolized	Compound NOT metabolized	Compound NOT metabolized	Compound metabolized	Compound metabolized	Compound NOT metabolized	Compound NOT metabolized	Compound metabolized	Compound NOT metabolized	Compound metabolized	Compound NOT metabolized
C[C@@H]1C[C@H]2[C@@H]3CCC4=CC(=O)C=C[C@]4(C)[C@@]3(F)[C@@H](O)C[C@]2(C)[C@@]1(O)C(=O)CO [DEXAMETHASONE]	Compound NOT metabolized	Compound NOT metabolized	Compound NOT metabolized	Compound metabolized	Compound NOT metabolized	Compound NOT metabolized	Compound NOT metabolized	Compound metabolized	Compound NOT metabolized	Compound NOT metabolized	Compound NOT metabolized
C[C@]12C=CC(=O)C=C1CC[C@@H]1[C@@H]2[C@@H](O)C[C@@]2(C)[C@H]1CC[C@]2(O)C(=O)CO [PREDNISOLONE]	Compound NOT metabolized	Compound NOT metabolized	Compound NOT metabolized	Compound metabolized	Compound metabolized	Compound NOT metabolized	Compound NOT metabolized	Compound NOT metabolized	Compound NOT metabolized	Compound NOT metabolized	Compound NOT metabolized

The next lines start with the values.

Bacterial Biotransformation [1]	Bacterial Biotransformation [2]	Bacterial Biotransformation [3]	Bacterial Biotransformation [4]	Bacterial Biotransformation [5]	Bacterial Biotransformation [6]	Bacterial Biotransformation [7]	Bacterial Biotransformation [8]	Bacterial Biotransformation [9]	Bacterial Biotransformation [10]	Bacterial Biotransformation [11]	SMILES
Compound NOT metabolized	Compound NOT metabolized	Compound metabolized	Compound metabolized	Compound NOT metabolized	Compound NOT metabolized	Compound NOT metabolized	Compound NOT metabolized	Compound NOT metabolized	Compound metabolized	Compound NOT metabolized	CO[C@H]1C[C@@H]2CC[C@@H](C)[C@@](O)(O2)C(=O)C(=O)N2CCCC[C@H]2C(=O)O[C@H]([C@H](C)C[C@@H]2CC[C@@H](O)[C@H](OC)C2)CC(=O)[C@H](C)/C=C(\C)[C@@H](O)[C@@H](OC)C(=O)[C@H](C)C[C@H](C)/C=C/C=C/C=C/1C [SIROLIMUS]
Compound NOT metabolized	Compound NOT metabolized	Compound NOT metabolized	Compound metabolized	Compound NOT metabolized	Compound NOT metabolized	Compound NOT metabolized	Compound metabolized	Compound NOT metabolized	Compound NOT metabolized	Compound NOT metabolized	C=CC[C@@H]1/C=C(\C)C[C@H](C)C[C@H](OC)[C@H]2O[C@@](O)(C(=O)C(=O)N3CCCC[C@H]3C(=O)O[C@H](/C(C)=C/[C@@H]3CC[C@@H](O)[C@H](OC)C3)[C@H](C)[C@@H](O)CC1=O)[C@H](C)C[C@@H]2OC.O [TACROLIMUS]
Compound NOT metabolized	Compound NOT metabolized	Compound NOT metabolized	Compound metabolized	Compound metabolized	Compound NOT metabolized	Compound NOT metabolized	Compound metabolized	Compound NOT metabolized	Compound NOT metabolized	Compound NOT metabolized	C[C@H]1C[C@@H]2[C@H]([C@@H](O)C[C@@]3(C)[C@H]2CC[C@]3(O)C(=O)CO)[C@@]2(C)C=CC(=O)C=C12 [METHYLPREDNISOLONE]
Compound NOT metabolized	Compound NOT metabolized	Compound NOT metabolized	Compound NOT metabolized	Compound NOT metabolized	Compound NOT metabolized	Compound NOT metabolized	Compound metabolized	Compound NOT metabolized	Compound NOT metabolized	Compound NOT metabolized	CCCC1O[C@@H]2C[C@H]3[C@@H]4CCC5=CC(=O)C=C[C@]5(C)[C@H]4[C@@H](O)C[C@]3(C)[C@]2(C(=O)CO)O1 (stereo partly specified) [BUDESONIDE]
Compound NOT metabolized	Compound NOT metabolized	Compound NOT metabolized	Compound NOT metabolized	Compound NOT metabolized	Compound NOT metabolized	Compound NOT metabolized	Compound NOT metabolized	Compound NOT metabolized	Compound NOT metabolized	Compound NOT metabolized	CCC(C)(C)C(=O)O[C@H]1C[C@@H](C)C=C2C=C[C@H](C)[C@H](CC[C@@H]3C[C@@H](O)CC(=O)O3)[C@H]21 [SIMVASTATIN]
